≈ marks a conversion by molar mass, not a printed value.
Columns and labels:
[1] = system: Mycobacterium tuberculosis; assay: Antimycobacterial activity against isoniazid/rifampicin-resistant Mycobacterium tuberculosis isolate 16833 after 7 days by microplate alamar blue assay; assay type: functional; settings: isolate 16833, 168 h
[2] = system: Mycobacterium tuberculosis; assay: Antimycobacterial activity against isoniazid/rifampicin-resistant Mycobacterium tuberculosis isolate 16995 after 7 days by microplate alamar blue assay; assay type: functional; settings: isolate 16995, 168 h

Row | Compound | MIC [1] | MIC [2]
1 | CCc1nc2ccc(Cl)cn2c1C(=O)NCc1ccc2c(c1)CCN(Cc1ccc(C(F)(F)F)cn1)C2 | 0.049 µM (≈ 0.0259 µg/mL) | 0.046 µM (≈ 0.0243 µg/mL)
2 | CCc1nc2ccc(Cl)cn2c1C(=O)NCc1ccc2c(c1)CCN(Cc1cc(F)cc(F)c1)C2 | < 0.035 µM | < 0.035 µM
3 | CCc1nc2ccc(Cl)cn2c1C(=O)NCc1ccc2c(c1)CCN(Cc1ccc(F)cc1)C2 | < 0.035 µM | < 0.035 µM
4 | CCc1nc2ccc(Cl)cn2c1C(=O)NCc1ccc2c(c1)CCN(CCc1ccc(C(F)(F)F)cn1)C2 | < 0.035 µM | < 0.035 µM
5 | CCc1nc2cc(Cl)ccn2c1C(=O)NCc1ccc2c(c1)CCN(Cc1ccc(C(C)(C)C)cc1)C2 | < 0.035 µM | < 0.035 µM
6 | CCc1nc2ccc(Cl)cn2c1C(=O)NCc1ccc2c(c1)CCN(Cc1ccc(C(F)(F)F)cc1)C2 | < 0.035 µM | < 0.035 µM
7 | CCc1nc2cc(Cl)ccn2c1C(=O)NCc1ccc2c(c1)CCN(Cc1cc(F)cc(F)c1)C2 | 0.095 µM (≈ 0.047 µg/mL) | 0.11 µM (≈ 0.0544 µg/mL)
8 | CCc1nc2cc(Cl)ccn2c1C(=O)NCc1ccc2c(c1)CCN(Cc1ccc(OC)cc1)C2 | 0.096 µM (≈ 0.0469 µg/mL) | 0.9 µM (≈ 0.44 µg/mL)
9 | CCc1nc2ccc(Cl)cn2c1C(=O)NCc1ccc2c(c1)CCN(Cc1ccc(Br)cc1)C2 | < 0.035 µM | < 0.035 µM
10 | CCc1nc2ccc(Cl)cn2c1C(=O)NCc1ccc2c(c1)CN(C(C)c1ccc(OC(F)(F)F)cc1)C2 (centres undefined) | < 0.035 µM | < 0.035 µM
11 | CCc1nc2ccc(Cl)cn2c1C(=O)NCc1ccc2c(c1)CCN(Cc1ccc(C(C)(C)C)cc1)C2 | < 0.035 µM | < 0.035 µM
12 | CCc1nc2ccc(Cl)cn2c1C(=O)NCc1ccc2c(c1)CCN(Cc1ccc(C)cc1)C2 | < 0.035 µM | < 0.035 µM
13 | CCc1nc2ccc(Cl)cn2c1C(=O)NCc1ccc2c(c1)CCN(Cc1ccc(C(F)(F)F)nc1)C2 | < 0.035 µM | 0.047 µM (≈ 0.0248 µg/mL)
14 | CCc1nc2ccc(Cl)cn2c1C(=O)NCc1ccc2c(c1)CN(Cc1ccc(OC(F)(F)F)cc1)C2 | < 0.035 µM | < 0.035 µM
15 | CCc1nc2ccc(Cl)cn2c1C(=O)NCc1ccc2c(c1)CCN(Cc1ccc(OC)cc1)C2 | < 0.035 µM | < 0.035 µM
16 | CCc1nc2cc(Cl)ccn2c1C(=O)NCc1ccc2c(c1)CCN(CCc1ccc(C(F)(F)F)cn1)C2 | < 0.035 µM | 0.061 µM (≈ 0.0331 µg/mL)
17 | CCc1nc2ccc(Cl)cn2c1C(=O)NCc1ccc2c(c1)CCN(CCc1ccc(C(F)(F)F)nc1)C2 | < 0.035 µM | < 0.035 µM
18 | CCc1nc2cc(Cl)ccn2c1C(=O)NCc1ccc2c(c1)CCN(Cc1ccc([N+](=O)[O-])o1)C2 | 1.24 µM (≈ 0.612 µg/mL) | 0.44 µM (≈ 0.217 µg/mL)
19 | NNC(=O)c1ccncc1 [ISONIAZID] | > 40 µM | > 40 µM
20 | O=c1nc(N2CCN(CC3CCCCC3)CC2)sc2c([N+](=O)[O-])cc(C(F)(F)F)cc12 [MACOZINONE] | < 0.035 µM | < 0.035 µM
21 | CO[C@H]1/C=C/O[C@@]2(C)Oc3c(C)c(O)c4c(O)c(c(/C=N/N5CCN(C)CC5)c(O)c4c3C2=O)NC(=O)/C(C)=C\C=C\[C@H](C)[C@H](O)[C@@H](C)[C@@H](O)[C@@H](C)[C@H](OC(C)=O)[C@@H]1C [RIFAMPIN] | > 40 µM | > 40 µM
22 | CCc1nc2ccc(Cl)cn2c1C(=O)NCc1ccc(N2CCC(c3ccc(OC(F)(F)F)cc3)CC2)cc1 [TELACEBEC] | < 0.035 µM | < 0.035 µM

Reference: ChEMBL document CHEMBL4411339, “Design, synthesis and antimycobacterial activity of less lipophilic Q203 derivatives containing alkaline fused ring moieties” (Bioorg Med Chem, 2019)
